From patent US8372848B2, “Melanin-concentrating hormone receptor antagonists and methods of use” (Mixture Sciences, Inc., priority 2004, dated 2013)

What was measured:
[1] = target: rat MCH1R (Rattus norvegicus, UniProt P97639); experiment: MCH-induced Ca2+ mobilization (FLIPR) in HEK 293T cells expressing rat MCH1R; assay type: cell-based; details: HEK 293T cell expressing rat MCH1R; read-out: EC50 for stimulation of Ca2+ mobilization
[2] = test system: rats; experiment: MCH-induced food intake after icv administration; assay type: in vivo, rat; details: 2 nmol icv
Experimental: To determine inhibitory effects of TPI 1361-17 on MCH-induced food intake, rats were habituated to a wire bottom cage for more than 3 weeks prior to the experiment. Experiments were carried out from 6 a.m. to 7 a.m. when rats were satiated. […] On the other hand, five nmol of TPI 1361-17 suppressed cumulative food intake by 75% even at 4h (FIG. 5B).
To determine the effects of TPI 1361-17 on MCH-induced food intake, rats were randomly divided into three groups: 1) TPI 1361-17 (dissolved in DMSO) and 2 nmol of MCH; 2) MCH 2 nmol, 3) ACSF. Each mixture contained a DMSO equivalent concentration to that of the antagonist solution (up to 5% (v/v)). Ten μl of each solution was administered into lateral ventricle for 2 minutes. The injections were done between 7:00-8:00 a.m., and food intake was monitored for 4 h after the injection.
For animal studies, adult male Sprague-Dawley rats weighing 200-300g were obtained from Charles River Laboratories (Wilmington, Mass.), bearing a 23-gauge stainless steel cannula placed into the right lateral ventricle. Rats were housed individually and maintained on a 12 h light-dark cycle (6:00 am-6:00 pm light) with free access to tap water and rat chaw (PROLAB RMH 2500, containing 23.0% protein, 4.5% fat, gross energy 4.5 kcal/g. PMI nutrition international, LLC. Brentwood, Mo.). Prior to all studies, rats were handled and habituated for 7 days, and 10 μl of artificial cerebrospinal fluid (ACSF: NaCl 124, KCl 5, CaCl2 2.4 MgSO4 2, KH2PO4 1.25, NaHCO3 26 and glucose 10, in mM) was injected through the cannula to minimize stress effects at the time of the experiment. Cannula placement was confirmed in all animals by evaluating the response to 50 ng of angiotensin II. Only animals drinking more than 5 ml of water in 1 h were used in feeding studies.

Chain of rat MCH1R (P97639 whole entry): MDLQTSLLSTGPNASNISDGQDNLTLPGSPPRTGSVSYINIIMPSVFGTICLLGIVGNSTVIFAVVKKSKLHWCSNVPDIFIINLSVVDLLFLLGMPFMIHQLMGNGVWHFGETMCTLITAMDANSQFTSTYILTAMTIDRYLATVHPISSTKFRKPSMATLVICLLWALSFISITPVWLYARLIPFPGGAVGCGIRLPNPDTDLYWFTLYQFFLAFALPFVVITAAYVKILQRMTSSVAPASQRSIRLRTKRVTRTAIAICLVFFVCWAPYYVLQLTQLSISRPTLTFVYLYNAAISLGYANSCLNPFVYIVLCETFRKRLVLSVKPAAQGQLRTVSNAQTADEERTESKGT

CSCC[C@@H]1NC(=O)[C@@H](NC(=O)[C@H](CCCNC(=N)N)NC(=O)[C@H](CC(C)C)NC(=O)[C@H](CCSC)NC(=O)[C@H](CC(=O)O)NC(=O)[C@H](Cc2ccccc2)NC(=O)[C@@H](N)CC(=O)O)CSSC[C@@H](C(=O)N[C@@H](Cc2c[nH]c3ccccc23)C(=O)N[C@@H](CCC(N)=O)C(=O)N[C@H](C(=O)O)C(C)C)NC(=O)[C@@H]2CCCN2C(=O)[C@H](CCCNC(=N)N)NC(=O)[C@H](Cc2ccc(O)cc2)NC(=O)[C@H](C(C)C)NC(=O)[C@H](CCCNC(=N)N)NC(=O)CNC(=O)[C@H](CC(C)C)NC1=O [MCH, reference compound]
EC50 [1]: 0.9 nM
Feeding in satiated rats [2]: induced rapid and robust feeding
